How the values were obtained:
[1] = system: KG-1 cell line (FGFR 1-fusion); experiment: Cancer cell line cell viability assay (Cell Titer-Glo), 72 hr; assay type: cell-based; details: Homo sapiens, KG-1, KG-1 cell line (FGFR1-fusion)
Summary of the method: (§1)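 RPMI1640/10% FBS for RT112/84 and MDA-MB-453; IMDM/20% FBS for KG-1; IMDM/10% FBS for HuH7. Cells plated overnight, dosed from 3 μM in 4-fold, 9-point series, incubated at 37° C, then lysed with Cell Titer-Glo 2.0; IC50 by sigmoidal fit.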

[2] = system: RT112/84 cell line (FGFR3-fusion); experiment: as above; assay type: cell-based; details: Homo sapiens, RT112/84, RT112/84 cell line (FGFR3-fusion)
Summary of the method: as §1

[3] = system: KATO-III cell line (FGFR2 amplification); experiment: as above; assay type: cell-based; details: Homo sapiens, KATO III
Summary of the method: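 Luminescent ATP read-out (Cell Titer-Glo 2.0) after compound exposure, normalised to DMSO-only wells. Dosing: 9 concentrations, 4-fold steps, top 3 μM, triplicates. IC50 derived by log(inhibitor) vs. response 4-parameter fit.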

FGFR4 = biological target: T1, FGFR4 (Homo sapiens, UniProt P22455); experiment: Kinase binding assay (kinase-tagged T7 phage, affinity beads, qPCR), Kd; details: read-out: FGFR4 (Kd nM)
T1 construct: made in house; host or cells: E. coli (BL21-derived), T7 phage
Summary of the method: (§2)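 T7 phage displaying each kinase, grown in a BL21-derived E. coli host at 32° C until lysis, competed with test compound for biotinylated ligand immobilised on streptavidin beads. Bead-bound kinase was eluted and quantified by qPCR. Kd came from an 11-point 3-fold dilution series fitted to the Hill equation with slope fixed at −1.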

FGFR1 = biological target: T2, FGFR1 (Homo sapiens, UniProt P11362); experiment: as above; details: read-out: FGFR1 (Kd nM)
T2 construct: made in house; host or cells: E. coli (BL21-derived), T7 phage
Summary of the method: as §2

FGFR2 = biological target: T3, FGFR2 (Homo sapiens, UniProt P21802); experiment: as above; details: read-out: FGFR2 (Kd nM)
T3 construct: made in house; host or cells: E. coli (BL21-derived), T7 phage
Summary of the method: as §2

FGFR3 (V555M) = biological target: T4, FGFR3 (V555M) (Homo sapiens, UniProt P22607, V555M); experiment: as above; details: V555M mutant; read-out: FGFR3 (V555M) (Kd nM)
T4 construct: made in house; host or cells: E. coli (BL21-derived), T7 phage
Summary of the method: as §2

FGFR3 = biological target: T5, FGFR3 (Homo sapiens, UniProt P22607); experiment: as above; details: read-out: FGFR3 (Kd nM)
T5 construct: made in house; host or cells: E. coli (BL21-derived), T7 phage
Summary of the method: as §2

[4] = system: MDA-MB-453 cell line (FGFR4-Y367C); experiment: Cancer cell line cell viability assay (Cell Titer-Glo), 120 hr; assay type: cell-based; details: Homo sapiens
Summary of the method: as §1

T1 sequence (P22455 22-802): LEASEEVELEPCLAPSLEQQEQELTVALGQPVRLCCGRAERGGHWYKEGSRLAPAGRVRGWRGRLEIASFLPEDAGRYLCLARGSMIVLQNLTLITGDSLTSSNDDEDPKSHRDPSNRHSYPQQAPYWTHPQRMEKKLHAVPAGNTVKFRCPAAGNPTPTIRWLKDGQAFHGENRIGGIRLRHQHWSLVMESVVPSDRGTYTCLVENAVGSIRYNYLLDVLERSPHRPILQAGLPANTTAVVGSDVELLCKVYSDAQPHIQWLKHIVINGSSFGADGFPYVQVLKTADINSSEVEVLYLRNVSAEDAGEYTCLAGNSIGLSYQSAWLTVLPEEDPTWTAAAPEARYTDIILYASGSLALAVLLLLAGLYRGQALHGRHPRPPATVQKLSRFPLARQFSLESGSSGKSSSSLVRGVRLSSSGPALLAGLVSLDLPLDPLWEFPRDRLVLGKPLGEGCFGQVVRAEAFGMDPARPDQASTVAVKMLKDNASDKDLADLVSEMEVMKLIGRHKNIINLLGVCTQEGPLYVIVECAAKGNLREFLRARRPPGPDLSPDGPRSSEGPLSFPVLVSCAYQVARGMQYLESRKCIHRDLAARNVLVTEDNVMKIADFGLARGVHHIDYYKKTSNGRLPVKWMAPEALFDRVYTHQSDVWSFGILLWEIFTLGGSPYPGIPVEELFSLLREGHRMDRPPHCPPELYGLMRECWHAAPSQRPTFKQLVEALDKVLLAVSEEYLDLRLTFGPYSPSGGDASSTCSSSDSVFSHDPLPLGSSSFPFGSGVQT
T5 sequence (P22607 23-806): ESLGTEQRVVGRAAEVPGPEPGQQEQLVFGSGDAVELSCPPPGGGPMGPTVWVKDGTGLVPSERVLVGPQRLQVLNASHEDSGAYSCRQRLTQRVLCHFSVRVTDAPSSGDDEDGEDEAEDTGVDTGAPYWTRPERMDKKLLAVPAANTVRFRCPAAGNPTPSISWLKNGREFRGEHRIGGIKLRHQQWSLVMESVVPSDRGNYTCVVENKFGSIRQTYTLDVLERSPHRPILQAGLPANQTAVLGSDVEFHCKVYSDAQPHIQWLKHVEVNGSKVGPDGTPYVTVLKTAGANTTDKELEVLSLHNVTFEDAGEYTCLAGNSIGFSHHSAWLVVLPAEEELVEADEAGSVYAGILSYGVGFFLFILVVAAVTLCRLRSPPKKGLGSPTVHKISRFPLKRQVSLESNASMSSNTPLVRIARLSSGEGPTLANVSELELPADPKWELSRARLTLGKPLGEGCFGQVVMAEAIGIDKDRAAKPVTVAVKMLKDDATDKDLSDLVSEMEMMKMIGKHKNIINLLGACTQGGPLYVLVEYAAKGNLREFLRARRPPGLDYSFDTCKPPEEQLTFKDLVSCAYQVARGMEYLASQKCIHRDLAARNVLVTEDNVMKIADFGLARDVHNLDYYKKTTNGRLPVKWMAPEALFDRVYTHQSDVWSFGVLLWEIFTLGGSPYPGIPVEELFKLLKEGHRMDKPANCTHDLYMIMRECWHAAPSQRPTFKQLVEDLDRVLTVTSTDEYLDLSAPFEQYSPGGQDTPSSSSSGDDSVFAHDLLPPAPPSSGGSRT
T3 sequence (P21802 22-821): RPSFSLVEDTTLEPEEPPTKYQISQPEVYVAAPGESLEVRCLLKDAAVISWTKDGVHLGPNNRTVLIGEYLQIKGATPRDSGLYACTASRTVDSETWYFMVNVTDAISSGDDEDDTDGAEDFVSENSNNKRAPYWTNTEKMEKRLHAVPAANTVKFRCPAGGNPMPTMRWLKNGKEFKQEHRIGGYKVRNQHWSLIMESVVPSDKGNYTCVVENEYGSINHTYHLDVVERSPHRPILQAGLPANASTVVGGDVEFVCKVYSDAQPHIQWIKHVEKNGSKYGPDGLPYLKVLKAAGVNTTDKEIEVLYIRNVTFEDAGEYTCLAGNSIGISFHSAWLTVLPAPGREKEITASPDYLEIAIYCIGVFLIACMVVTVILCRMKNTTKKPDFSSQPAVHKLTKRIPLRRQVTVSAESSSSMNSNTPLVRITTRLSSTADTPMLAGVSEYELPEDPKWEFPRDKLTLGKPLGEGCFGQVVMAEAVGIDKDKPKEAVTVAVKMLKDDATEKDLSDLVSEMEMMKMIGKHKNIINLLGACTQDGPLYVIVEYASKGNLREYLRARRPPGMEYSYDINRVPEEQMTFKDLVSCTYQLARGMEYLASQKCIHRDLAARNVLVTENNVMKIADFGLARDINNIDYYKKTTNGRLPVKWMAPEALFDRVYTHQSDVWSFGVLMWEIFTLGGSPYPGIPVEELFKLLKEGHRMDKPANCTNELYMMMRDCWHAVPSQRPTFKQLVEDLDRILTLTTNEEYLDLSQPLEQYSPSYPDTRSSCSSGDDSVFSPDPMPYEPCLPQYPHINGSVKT
T4 sequence (P22607 23-806 V555M): as the sequence (P22607 23-806) above, with V533M counted along it
T2 sequence (P11362 22-822): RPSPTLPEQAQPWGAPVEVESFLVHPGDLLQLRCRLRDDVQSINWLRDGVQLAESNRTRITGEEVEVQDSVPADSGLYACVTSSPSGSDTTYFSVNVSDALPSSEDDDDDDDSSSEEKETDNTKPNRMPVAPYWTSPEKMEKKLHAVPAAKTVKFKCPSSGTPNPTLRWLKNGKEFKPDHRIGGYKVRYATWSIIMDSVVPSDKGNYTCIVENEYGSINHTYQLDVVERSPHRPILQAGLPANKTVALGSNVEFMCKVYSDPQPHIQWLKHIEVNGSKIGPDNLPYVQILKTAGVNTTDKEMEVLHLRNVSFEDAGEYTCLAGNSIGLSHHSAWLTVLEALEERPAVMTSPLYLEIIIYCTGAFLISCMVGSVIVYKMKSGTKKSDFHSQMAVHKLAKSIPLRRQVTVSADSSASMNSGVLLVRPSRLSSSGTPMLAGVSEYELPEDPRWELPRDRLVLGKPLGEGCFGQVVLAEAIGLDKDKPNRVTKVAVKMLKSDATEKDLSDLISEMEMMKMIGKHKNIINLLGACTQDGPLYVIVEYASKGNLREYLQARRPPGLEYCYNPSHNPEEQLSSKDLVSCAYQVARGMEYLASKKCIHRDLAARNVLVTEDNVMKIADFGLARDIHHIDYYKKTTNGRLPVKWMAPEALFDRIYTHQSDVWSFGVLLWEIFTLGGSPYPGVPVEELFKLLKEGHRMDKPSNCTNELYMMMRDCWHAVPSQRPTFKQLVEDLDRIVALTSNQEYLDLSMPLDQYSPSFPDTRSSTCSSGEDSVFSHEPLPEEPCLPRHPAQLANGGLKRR

SMILES	IC50 [1] [nM]	IC50 [2] [nM]	IC50 [3] [nM]	Kd (FGFR4) [nM]	Kd (FGFR1) [nM]	Kd (FGFR2) [nM]	Kd (FGFR3 (V555M)) [nM]	Kd (FGFR3) [nM]	IC50 [4] [nM]
Cc1ncc(Cl)c([C@@H](C)Oc2ccc3[nH]nc(-c4ccc(N5CC(C)(N6CCOCC6)C5)nc4)c3c2)c1Cl [Example 77, 4-[1-[5-[5-[(1R)-1-(3,5-dichloro-2-methyl-4-pyridyl)ethoxy]-1H-indazol-3-yl]-2-pyridyl]-3-methyl-azetidin-3-yl]morpholine]	200 to 1000	0.1 to 50	50 to 200	1 to 50	1 to 50	1 to 50	1 to 50	1 to 50	200 to 1000
Cc1ncc(Cl)c([C@@H](C)Oc2ccc3[nH]nc(-c4ccc(N5CC(C)(N(C)C)C5)nc4)c3c2)c1Cl [Example 78, 1-[5-[5-[(1R)-1-(3,5-dichloro-2-methyl-4-pyridyl)ethoxy]-1H-indazol-3-yl]-2-pyridyl]-N,N,3-trimethyl-azetidin-3-amine]	200 to 1000	0.1 to 50	50 to 200	1 to 50	1 to 50	1 to 50	1 to 50	1 to 50	200 to 1000
C[C@@H](Oc1ccc2[nH]nc(-c3cnc(N4CC(C)(NCC5CC5)C4)c(F)c3)c2c1)c1c(Cl)cncc1Cl [Example 106, (R)-N-(cyclopropylmethyl)-1-(5-(5-(1-(3,5-dichloropyridin-4-yl)ethoxy)-1H-indazol-3-yl)-3-fluoropyridin-2-yl)-3-methylazetidin-3-amine]	50 to 200	0.1 to 50	50 to 200	1 to 50	1 to 50	1 to 50	1 to 50	1 to 50	50 to 200
CC(C)CNC1(C)CN(c2ncc(-c3n[nH]c4ccc(O[C@H](C)c5c(Cl)cncc5Cl)cc34)cc2F)C1 [Example 138, 1-[5-[5-[(1R)-1-(3,5-dichloro-4-pyridyl)ethoxy]-1H-indazol-3-yl]-3-fluoro-2-pyridyl]-N-isobutyl-3-methyl-azetidin-3-amine]	50 to 200	0.1 to 50	0.1 to 50	1 to 50	1 to 50	1 to 50	1 to 50	1 to 50	50 to 200
C[C@@H](Oc1ccc2[nH]nc(-c3cnc(N4CC(C)(NCC(F)F)C4)c(F)c3)c2c1)c1c(Cl)cncc1Cl [Example 155, 1-[5-[5-[(1R)-1-(3,5-dichloro-4-pyridyl)ethoxy]-1H-indazol-3-yl]-3-fluoro-2-pyridyl]-N-(2,2-difluoroethyl)-3-methyl-azetidin-3-amine]	50 to 200	0.1 to 50	0.1 to 50	1 to 50	1 to 50	1 to 50	1 to 50	1 to 50	50 to 200
C[C@@H](Oc1ccc2[nH]nc(-c3cnc(N4CC(N)(c5cnn(C)c5)C4)c(F)c3)c2c1)c1c(Cl)cncc1Cl [Example 277, (R)-1-(5-(5-(1-(3,5-dichloropyridin-4-yl)ethoxy)-1H-indazol-3-yl)-3-fluoropyridin-2-yl)-3-(1-methyl-1H-pyrazol-4-yl)azetidin-3-amine]	50 to 200	0.1 to 50	0.1 to 50	–	1 to 50	–	–	1 to 50	0.1 to 50
C[C@@H](Oc1ccc2[nH]nc(-c3ccc(N4CC(N)(Cc5ccnn5C)C4)nn3)c2c1)c1c(Cl)cncc1Cl [Example 281, (R)-1-(6-(5-(1-(3,5-dichloropyridin-4-yl)ethoxy)-1H-indazol-3-yl)pyridazin-3-yl)-3-((1-methyl-1H-pyrazol-5-yl)methyl)azetidin-3-amine]	50 to 200	0.1 to 50	0.1 to 50	–	1 to 50	–	–	1 to 50	200 to 1000
C[C@@H](Oc1ccc2[nH]nc(-c3cnc(N4CC(N)(Cc5ccn(C)n5)C4)c(F)c3)c2c1)c1c(Cl)cncc1Cl [Example 282, (R)-1-(5-(5-(1-(3,5-dichloropyridin-4-yl)ethoxy)-1H-indazol-3-yl)-3-fluoropyridin-2-yl)-3-((1-methyl-1H-pyrazol-3-yl)methyl)azetidin-3-amine]	50 to 200	0.1 to 50	50 to 200	–	1 to 50	–	–	1 to 50	50 to 200
C[C@@H](Oc1ccc2[nH]nc(-c3cnc(N4CC(N)(CCF)C4)c(F)c3)c2c1)c1c(Cl)cncc1Cl [Example 284, (R)-1-(5-(5-(1-(3,5-dichloropyridin-4-yl)ethoxy)-1H-indazol-3-yl)-3-fluoropyridin-2-yl)-3-(2-fluoroethyl)azetidin-3-amine]	50 to 200	0.1 to 50	0.1 to 50	–	1 to 50	–	–	1 to 50	0.1 to 50
C[C@@H](Oc1ccc2[nH]nc(-c3ccc(N4CC(N)(Cc5cnn(C)c5)C4)nn3)c2c1)c1c(Cl)cncc1Cl [Example 289, (R)-1-(6-(5-(1-(3,5-dichloropyridin-4-yl)ethoxy)-1H-indazol-3-yl)pyridazin-3-yl)-3-((1-methyl-1H-pyrazol-4-yl)methyl)azetidin-3-amine]	200 to 1000	0.1 to 50	50 to 200	–	1 to 50	–	–	1 to 50	200 to 1000
C[C@@H](Oc1ccc2[nH]nc(-c3cnc(N4CC(N)(Cc5cnn(C)c5)C4)c(F)c3)c2c1)c1c(Cl)cncc1Cl [Example 290, (R)-1-(5-(5-(1-(3,5-dichloropyridin-4-yl)ethoxy)-1H-indazol-3-yl)-3-fluoropyridin-2-yl)-3-((1-methyl-1H-pyrazol-4-yl)methyl)azetidin-3-amine]	50 to 200	0.1 to 50	50 to 200	–	1 to 50	–	–	1 to 50	50 to 200

Further lines, results first:

IC50 [1] [nM]	IC50 [2] [nM]	IC50 [3] [nM]	Kd (FGFR4) [nM]	Kd (FGFR1) [nM]	Kd (FGFR2) [nM]	Kd (FGFR3 (V555M)) [nM]	Kd (FGFR3) [nM]	IC50 [4] [nM]	SMILES
50 to 200	0.1 to 50	0.1 to 50	1 to 50	1 to 50	1 to 50	1 to 50	1 to 50	50 to 200	C[C@@H](Oc1ccc2[nH]nc(-c3cnc(N4CC(C)(NC(=O)CN(C)C)C4)c(F)c3)c2c1)c1c(Cl)cncc1Cl (stereo in doubt) [Example 156, N-(1-(5-(5-(1-(3,5-dichloropyridin-4-yl)ethoxy)-1H-indazol-3-yl)-3-fluoropyridin-2-yl)-3-methylazetidin-3-yl)-2-(dimethylamino)-acetamide]
50 to 200	0.1 to 50	50 to 200	1 to 50	1 to 50	1 to 50	1 to 50	1 to 50	200 to 1000	CNC1(C)CN(c2ccc(-c3n[nH]c4ccc(O[C@H](C)c5c(Cl)cnc(C)c5Cl)cc34)cn2)C1 [Example 76, 1-[5-[5-[(1R)-1-(3,5-dichloro-2-methyl-4-pyridyl)ethoxy]-1H-indazol-3-yl]-2-pyridyl]-N,3-dimethyl-azetidin-3-amine]
50 to 200	0.1 to 50	0.1 to 50	1 to 50	1 to 50	1 to 50	1 to 50	1 to 50	0.1 to 50	COc1cc2[nH]nc(-c3ccc(N4CC(C)(NCCO)C4)nc3)c2cc1O[C@H](C)c1c(Cl)cncc1Cl [Example 83, (R)-2-((1-(5-(5-(1-(3,5-dichloropyridin-4-yl)ethoxy)-6-methoxy-1H-indazol-3-yl)pyridin-2-yl)-3-methylazetidin-3-yl)amino)ethan-1-ol]
0.1 to 50	0.1 to 50	0.1 to 50	–	1 to 50	–	–	1 to 50	0.1 to 50	C[C@@H](Oc1ccc2[nH]nc(-c3cnc(N4CC(N)(Cc5ccnn5C)C4)c(F)c3)c2c1)c1c(Cl)cncc1Cl [Example 283, (R)-1-(5-(5-(1-(3,5-dichloropyridin-4-yl)ethoxy)-1H-indazol-3-yl)-3-fluoropyridin-2-yl)-3-((1-methyl-1H-pyrazol-5-yl)methyl)azetidin-3-amine]
0.1 to 50	0.1 to 50	0.1 to 50	–	1 to 50	–	–	1 to 50	200 to 1000	C[C@@H](Oc1ccc2[nH]nc(-c3ccc(N4CC(N)(CCC#N)C4)nn3)c2c1)c1c(Cl)cncc1Cl [Example 285, (R)-3-(3-amino-1-(6-(5-(1-(3,5-dichloropyridin-4-yl)ethoxy)-1H-indazol-3-yl)pyridazin-3-yl)azetidin-3-yl)propanenitrile]
